Consider one compound from ChEMBL document CHEMBL1909046, “DrugMatrix in vitro pharmacology data”.

Tyrosine-protein kinase Fyn, sequence (P06241 whole entry): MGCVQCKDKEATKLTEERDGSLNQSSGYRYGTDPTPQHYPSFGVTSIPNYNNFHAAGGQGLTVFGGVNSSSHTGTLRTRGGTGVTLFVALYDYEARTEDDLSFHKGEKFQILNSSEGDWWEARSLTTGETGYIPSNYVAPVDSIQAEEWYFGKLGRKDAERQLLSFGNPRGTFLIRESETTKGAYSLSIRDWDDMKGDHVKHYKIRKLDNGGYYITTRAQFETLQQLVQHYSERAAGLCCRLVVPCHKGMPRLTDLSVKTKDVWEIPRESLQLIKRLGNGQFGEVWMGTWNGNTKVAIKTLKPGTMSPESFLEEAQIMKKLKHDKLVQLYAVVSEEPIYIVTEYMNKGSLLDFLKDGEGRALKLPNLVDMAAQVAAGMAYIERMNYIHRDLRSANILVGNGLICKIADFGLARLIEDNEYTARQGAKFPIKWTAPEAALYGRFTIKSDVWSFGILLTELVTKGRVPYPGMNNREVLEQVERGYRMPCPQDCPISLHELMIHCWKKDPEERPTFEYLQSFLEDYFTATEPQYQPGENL
Melanocortin receptor 4, sequence (P32245 whole entry): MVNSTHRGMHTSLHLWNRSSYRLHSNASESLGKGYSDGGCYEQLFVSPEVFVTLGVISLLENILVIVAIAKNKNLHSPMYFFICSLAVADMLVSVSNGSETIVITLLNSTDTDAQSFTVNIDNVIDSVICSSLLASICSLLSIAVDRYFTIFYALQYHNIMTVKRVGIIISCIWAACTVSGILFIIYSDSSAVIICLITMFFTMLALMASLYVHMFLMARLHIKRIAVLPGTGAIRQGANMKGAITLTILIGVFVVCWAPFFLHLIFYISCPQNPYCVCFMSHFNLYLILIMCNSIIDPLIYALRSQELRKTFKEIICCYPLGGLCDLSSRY

The target of the first assay is Mu-type opioid receptor (Homo sapiens, UniProt P35372). Kind of assay: DRUGMATRIX: Opiate mu (OP3, MOP) radioligand binding (ligand: [3H] Diprenorphine). To be noted: cho-k1; Not Active = under 50% inhibition at 10 µM. Type of assay: cell membranes, CHO-K1, Membrane.
Mu-type opioid receptor, sequence (P35372 whole entry): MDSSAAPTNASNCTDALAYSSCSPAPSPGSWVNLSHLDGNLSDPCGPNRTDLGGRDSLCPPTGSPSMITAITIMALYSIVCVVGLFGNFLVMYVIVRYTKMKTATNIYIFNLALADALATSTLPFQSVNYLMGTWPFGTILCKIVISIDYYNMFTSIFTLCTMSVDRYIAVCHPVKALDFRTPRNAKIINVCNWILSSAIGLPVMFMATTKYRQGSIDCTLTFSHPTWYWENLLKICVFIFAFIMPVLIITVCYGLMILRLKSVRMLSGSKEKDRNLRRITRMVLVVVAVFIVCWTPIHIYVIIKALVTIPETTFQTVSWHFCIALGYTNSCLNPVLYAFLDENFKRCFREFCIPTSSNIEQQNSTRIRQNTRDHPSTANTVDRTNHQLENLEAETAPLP
Turning to `CC1(C)S[C@@H]2[C@H](NC(=O)[C@H](NC(=O)N3CCNC3=O)c3ccccc3)C(=O)N2[C@H]1C(=O)O` [AZLOCILLIN], the IC50 entry is recorded as “Not Active”.

Tested on in the next assay: not listed separately
The assay is described as follows: DRUGMATRIX: beta-Lactamase enzyme inhibition (substrate: Nitrocefin). More on the design: species or system Bacillus cereus. The following applies: Not Active = under 50% inhibition at 10 µM.
In the case of `CC1(C)S[C@@H]2[C@H](NC(=O)[C@H](NC(=O)N3CCNC3=O)c3ccccc3)C(=O)N2[C@H]1C(=O)O` [AZLOCILLIN], the IC50 entry was “Not Active” and the Ki entry is “Not Active”.

A further assay has as its target T1, Cysteinyl leukotriene receptor 1 (Homo sapiens, UniProt Q9Y271). Note: in other assays of this panel Not Active means under 50% inhibition at 10 µM.
T1 sequence (Q9Y271 whole entry): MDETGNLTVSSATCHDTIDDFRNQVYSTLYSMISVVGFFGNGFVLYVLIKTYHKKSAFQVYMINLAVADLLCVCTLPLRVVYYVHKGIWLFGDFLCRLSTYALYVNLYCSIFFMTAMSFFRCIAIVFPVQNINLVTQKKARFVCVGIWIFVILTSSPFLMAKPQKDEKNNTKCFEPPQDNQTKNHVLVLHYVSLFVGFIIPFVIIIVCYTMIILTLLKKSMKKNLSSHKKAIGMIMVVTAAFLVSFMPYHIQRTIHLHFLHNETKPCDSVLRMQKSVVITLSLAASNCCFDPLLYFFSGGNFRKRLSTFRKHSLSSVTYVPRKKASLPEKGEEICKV
Experiment: not given
Type of assay: cell membranes, CHO-K1, Membrane. The following applies: cho-k1.
Take `CC1(C)S[C@@H]2[C@H](NC(=O)[C@H](NC(=O)N3CCNC3=O)c3ccccc3)C(=O)N2[C@H]1C(=O)O` [AZLOCILLIN]: the IC50 entry is reported as “Not Active”.

The target in a further assay is 5-hydroxytryptamine receptor 1B (Rattus norvegicus, UniProt P28564). Note: in other assays of this panel Not Active means under 50% inhibition at 10 µM.
5-hydroxytryptamine receptor 1B, sequence (P28564 whole entry): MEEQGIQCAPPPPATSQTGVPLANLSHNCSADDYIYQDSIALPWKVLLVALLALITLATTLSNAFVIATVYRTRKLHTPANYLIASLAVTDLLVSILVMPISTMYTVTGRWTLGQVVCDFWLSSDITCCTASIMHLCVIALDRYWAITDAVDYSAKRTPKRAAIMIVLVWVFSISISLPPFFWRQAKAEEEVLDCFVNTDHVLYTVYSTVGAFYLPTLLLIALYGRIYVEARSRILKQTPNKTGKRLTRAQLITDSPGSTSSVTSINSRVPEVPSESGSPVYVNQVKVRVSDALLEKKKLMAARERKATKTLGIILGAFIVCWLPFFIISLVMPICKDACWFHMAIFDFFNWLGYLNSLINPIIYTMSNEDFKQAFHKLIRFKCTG
Experiment: not given
Type of assay: cell membranes, Wistar, Cerebral cortex, Membrane.
Conditions: not given
Regarding `CC1(C)S[C@@H]2[C@H](NC(=O)[C@H](NC(=O)N3CCNC3=O)c3ccccc3)C(=O)N2[C@H]1C(=O)O` [AZLOCILLIN], the IC50 entry is “Not Active”.

The next assay deals with T2, 5-hydroxytryptamine receptor 2C (Homo sapiens, UniProt P28335).
T2 sequence (P28335 whole entry): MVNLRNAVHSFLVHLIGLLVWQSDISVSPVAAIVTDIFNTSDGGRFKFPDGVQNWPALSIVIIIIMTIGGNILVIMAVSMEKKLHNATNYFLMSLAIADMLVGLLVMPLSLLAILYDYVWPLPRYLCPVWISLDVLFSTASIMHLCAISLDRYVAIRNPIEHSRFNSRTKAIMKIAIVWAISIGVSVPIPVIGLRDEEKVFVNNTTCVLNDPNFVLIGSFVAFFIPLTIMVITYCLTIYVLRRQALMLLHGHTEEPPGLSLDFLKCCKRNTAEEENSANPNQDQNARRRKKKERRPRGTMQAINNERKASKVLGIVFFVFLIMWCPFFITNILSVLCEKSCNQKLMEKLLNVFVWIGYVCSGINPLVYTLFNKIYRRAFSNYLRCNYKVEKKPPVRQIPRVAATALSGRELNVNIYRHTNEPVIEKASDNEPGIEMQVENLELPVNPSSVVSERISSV
Kind of assay: DRUGMATRIX: Serotonin (5-Hydroxytryptamine) 5-HT2C radioligand binding (ligand: [3H] Mesulergine). The following applies: cho-k1; Not Active = under 50% inhibition at 10 µM. Type of assay: cell membranes, CHO-K1, Membrane.
With `CC1(C)S[C@@H]2[C@H](NC(=O)[C@H](NC(=O)N3CCNC3=O)c3ccccc3)C(=O)N2[C@H]1C(=O)O` [AZLOCILLIN], the IC50 entry is given as “Not Active”.

A further assay addresses Tyrosine-protein kinase Fyn (Homo sapiens, UniProt P06241). The assay is described as follows: biochemical. Type of assay: cell-based, Insect cells. To be noted: insect cells.
In the case of `CC1(C)S[C@@H]2[C@H](NC(=O)[C@H](NC(=O)N3CCNC3=O)c3ccccc3)C(=O)N2[C@H]1C(=O)O` [AZLOCILLIN], the IC50 result is “Not Active”.

In the next assay the target is Melanocortin receptor 5 (Homo sapiens, UniProt P33032). Note: in other assays of this panel Not Active means under 50% inhibition at 10 µM.
Melanocortin receptor 5, sequence (P33032 whole entry): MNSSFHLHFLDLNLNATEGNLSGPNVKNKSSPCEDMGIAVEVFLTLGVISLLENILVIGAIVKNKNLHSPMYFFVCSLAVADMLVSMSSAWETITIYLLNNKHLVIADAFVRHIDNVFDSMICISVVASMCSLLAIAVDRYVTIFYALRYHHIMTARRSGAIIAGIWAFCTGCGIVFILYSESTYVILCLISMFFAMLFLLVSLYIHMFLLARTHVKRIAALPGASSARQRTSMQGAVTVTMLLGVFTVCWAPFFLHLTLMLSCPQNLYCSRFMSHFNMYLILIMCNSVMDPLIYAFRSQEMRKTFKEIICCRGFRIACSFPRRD
Experiment: not given
Type of assay: cell membranes, HEK293, Membrane. The following applies: hek293.
For `CC1(C)S[C@@H]2[C@H](NC(=O)[C@H](NC(=O)N3CCNC3=O)c3ccccc3)C(=O)N2[C@H]1C(=O)O` [AZLOCILLIN], the IC50 result is listed as “Not Active”.

The target in the next assay is T3, Cathepsin G (Homo sapiens, UniProt P08311).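 Note: inhibition of Cathepsin G enzyme activity, tested on an AMC-conjugated peptide substrate; in other assays of this panel Not Active means under 50% inhibition at 10 µM.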
T3 sequence (P08311 whole entry): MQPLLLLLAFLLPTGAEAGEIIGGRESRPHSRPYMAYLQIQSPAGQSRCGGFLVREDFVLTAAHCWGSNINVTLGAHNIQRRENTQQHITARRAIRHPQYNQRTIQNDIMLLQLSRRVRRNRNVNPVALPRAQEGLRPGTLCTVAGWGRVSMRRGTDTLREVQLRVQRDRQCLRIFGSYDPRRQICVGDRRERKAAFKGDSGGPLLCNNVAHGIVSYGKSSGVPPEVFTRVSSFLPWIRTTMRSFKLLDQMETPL
Experiment: not given
To be noted: neutrophil. Type of assay: tissue-based.
With `CC1(C)S[C@@H]2[C@H](NC(=O)[C@H](NC(=O)N3CCNC3=O)c3ccccc3)C(=O)N2[C@H]1C(=O)O` [AZLOCILLIN], the IC50 result was “Not Active”.

A further assay deals with Epidermal growth factor receptor (Homo sapiens, UniProt P00533). The assay is described as follows: DRUGMATRIX: Protein Tyrosine Kinase, EGF Receptor enzyme inhibition (substrate: Poly(Glu:Tyr)). Type of assay: cell-based, Insect cells. To be noted: insect cells; Not Active = under 50% inhibition at 10 µM.
Epidermal growth factor receptor, sequence (P00533 whole entry): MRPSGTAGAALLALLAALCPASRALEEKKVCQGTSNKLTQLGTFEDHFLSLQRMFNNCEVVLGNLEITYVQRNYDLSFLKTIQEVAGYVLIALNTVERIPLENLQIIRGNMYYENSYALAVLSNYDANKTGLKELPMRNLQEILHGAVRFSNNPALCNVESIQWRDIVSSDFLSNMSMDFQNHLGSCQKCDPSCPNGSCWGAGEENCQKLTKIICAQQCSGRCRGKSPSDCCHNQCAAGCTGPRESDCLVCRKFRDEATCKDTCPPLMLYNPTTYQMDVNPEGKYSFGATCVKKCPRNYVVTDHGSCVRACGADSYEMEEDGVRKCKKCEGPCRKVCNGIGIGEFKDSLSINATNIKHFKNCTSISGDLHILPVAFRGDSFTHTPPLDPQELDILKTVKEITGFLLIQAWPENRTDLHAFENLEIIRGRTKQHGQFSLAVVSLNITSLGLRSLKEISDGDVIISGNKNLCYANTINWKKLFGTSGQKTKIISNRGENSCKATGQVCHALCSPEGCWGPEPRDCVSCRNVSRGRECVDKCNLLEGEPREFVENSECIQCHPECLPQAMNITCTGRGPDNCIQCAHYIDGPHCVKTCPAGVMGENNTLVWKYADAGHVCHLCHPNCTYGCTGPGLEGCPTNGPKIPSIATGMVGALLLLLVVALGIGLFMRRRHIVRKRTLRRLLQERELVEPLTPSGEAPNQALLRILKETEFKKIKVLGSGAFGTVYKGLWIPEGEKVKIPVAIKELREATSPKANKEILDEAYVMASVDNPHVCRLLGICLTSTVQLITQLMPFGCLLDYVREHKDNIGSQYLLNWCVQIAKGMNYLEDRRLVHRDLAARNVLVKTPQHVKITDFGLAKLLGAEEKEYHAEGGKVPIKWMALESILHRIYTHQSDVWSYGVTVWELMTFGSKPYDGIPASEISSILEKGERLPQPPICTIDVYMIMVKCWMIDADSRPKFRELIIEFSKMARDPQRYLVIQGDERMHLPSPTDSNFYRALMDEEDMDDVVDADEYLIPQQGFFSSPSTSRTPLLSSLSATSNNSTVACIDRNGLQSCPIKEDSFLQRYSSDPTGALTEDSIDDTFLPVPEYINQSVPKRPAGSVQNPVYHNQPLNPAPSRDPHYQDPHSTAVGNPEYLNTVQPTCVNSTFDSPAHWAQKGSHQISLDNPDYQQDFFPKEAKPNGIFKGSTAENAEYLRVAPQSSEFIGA
For the compound `CC1(C)S[C@@H]2[C@H](NC(=O)[C@H](NC(=O)N3CCNC3=O)c3ccccc3)C(=O)N2[C@H]1C(=O)O` [AZLOCILLIN], the IC50 result is given as “Not Active”.

Tested on in the next assay: not listed separately
Kind of assay: DRUGMATRIX: Leukotriene, BLT (LTB4) radioligand binding (ligand: [3H]LTB4). Type of assay: cell membranes, Membrane. To be noted: u-937; Not Active = under 50% inhibition at 10 µM.
As for `CC1(C)S[C@@H]2[C@H](NC(=O)[C@H](NC(=O)N3CCNC3=O)c3ccccc3)C(=O)N2[C@H]1C(=O)O` [AZLOCILLIN], the IC50 entry is “Not Active” and the Ki entry is “Not Active”.

Another assay concerns the target Melanocortin receptor 4 (Homo sapiens, UniProt P32245). Note: in other assays of this panel Not Active means under 50% inhibition at 10 µM.
Experiment: not given
To be noted: hek293. Type of assay: cell membranes, Membrane.
Regarding `CC1(C)S[C@@H]2[C@H](NC(=O)[C@H](NC(=O)N3CCNC3=O)c3ccccc3)C(=O)N2[C@H]1C(=O)O` [AZLOCILLIN], the IC50 result is on record as “Not Active”.

Tested on in the next assay: not listed separately
The assay is described as follows: DRUGMATRIX: Sigma2 radioligand binding (ligand: [3H] Ifenprodil). Type of assay: cell membranes, Rattus norvegicus, Wistar, Brain, Membrane. To be noted: Not Active = under 50% inhibition at 10 µM.
As to `CC1(C)S[C@@H]2[C@H](NC(=O)[C@H](NC(=O)N3CCNC3=O)c3ccccc3)C(=O)N2[C@H]1C(=O)O` [AZLOCILLIN], the IC50 result was “Not Active” and the Ki entry is “Not Active”.

For another assay, the target named is Beta-1 adrenergic receptor (Homo sapiens, UniProt P08588). The assay is described as follows: DRUGMATRIX: Adrenergic beta1 radioligand binding (ligand: [125I] Cyanopindolol). The following applies: cho-k1; Not Active = under 50% inhibition at 10 µM. Type of assay: cell membranes, CHO-K1, Membrane.
Beta-1 adrenergic receptor, sequence (P08588 whole entry): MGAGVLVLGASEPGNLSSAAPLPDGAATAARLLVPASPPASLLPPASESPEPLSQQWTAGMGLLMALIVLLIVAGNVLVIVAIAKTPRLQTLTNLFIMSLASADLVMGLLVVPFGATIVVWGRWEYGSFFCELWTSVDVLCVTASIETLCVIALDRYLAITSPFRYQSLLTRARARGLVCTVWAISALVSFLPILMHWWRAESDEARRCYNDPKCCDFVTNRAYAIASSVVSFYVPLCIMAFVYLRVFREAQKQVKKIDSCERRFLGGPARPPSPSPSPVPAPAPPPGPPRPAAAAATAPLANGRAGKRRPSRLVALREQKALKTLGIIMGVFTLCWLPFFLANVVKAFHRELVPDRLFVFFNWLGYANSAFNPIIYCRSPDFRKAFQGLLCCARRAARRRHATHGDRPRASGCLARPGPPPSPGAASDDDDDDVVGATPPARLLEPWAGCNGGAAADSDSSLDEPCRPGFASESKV
Turning to `CC1(C)S[C@@H]2[C@H](NC(=O)[C@H](NC(=O)N3CCNC3=O)c3ccccc3)C(=O)N2[C@H]1C(=O)O` [AZLOCILLIN], the IC50 entry was “Not Active”.

For a further assay, the target named is T4, Caspase-1 (Homo sapiens, UniProt P29466).
T4 sequence (P29466 whole entry): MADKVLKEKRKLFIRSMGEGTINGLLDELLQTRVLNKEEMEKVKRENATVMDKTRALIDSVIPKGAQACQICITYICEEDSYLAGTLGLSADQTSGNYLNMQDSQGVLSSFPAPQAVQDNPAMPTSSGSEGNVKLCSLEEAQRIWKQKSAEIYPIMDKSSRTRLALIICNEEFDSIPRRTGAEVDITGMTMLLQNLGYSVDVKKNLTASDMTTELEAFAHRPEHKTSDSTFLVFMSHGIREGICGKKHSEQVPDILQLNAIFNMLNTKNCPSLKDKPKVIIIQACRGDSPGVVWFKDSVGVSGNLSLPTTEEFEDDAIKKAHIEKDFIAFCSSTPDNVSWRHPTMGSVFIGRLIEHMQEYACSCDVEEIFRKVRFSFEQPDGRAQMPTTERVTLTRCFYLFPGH
Experiment: not given
More on the design: species or system Escherichia coli.
Conditions: not given
In the case of `CC1(C)S[C@@H]2[C@H](NC(=O)[C@H](NC(=O)N3CCNC3=O)c3ccccc3)C(=O)N2[C@H]1C(=O)O` [AZLOCILLIN], the IC50 result is “Not Active”.

Tested on in a further assay: not listed separately
Kind of assay: DRUGMATRIX: Purinergic P2X radioligand binding (ligand: [3H] alpha, beta-Methylene-ATP). Type of assay: cell membranes, Oryctolagus cuniculus, New Zealand albino, Urinary bladder, Membrane. To be noted: Not Active = under 50% inhibition at 10 µM.
Take `CC1(C)S[C@@H]2[C@H](NC(=O)[C@H](NC(=O)N3CCNC3=O)c3ccccc3)C(=O)N2[C@H]1C(=O)O` [AZLOCILLIN]: the IC50 entry is given as “Not Active” and the Ki entry was “Not Active”.

The next assay concerns the target T5, D(4) dopamine receptor (Homo sapiens, UniProt P21917).
T5 sequence (P21917 whole entry): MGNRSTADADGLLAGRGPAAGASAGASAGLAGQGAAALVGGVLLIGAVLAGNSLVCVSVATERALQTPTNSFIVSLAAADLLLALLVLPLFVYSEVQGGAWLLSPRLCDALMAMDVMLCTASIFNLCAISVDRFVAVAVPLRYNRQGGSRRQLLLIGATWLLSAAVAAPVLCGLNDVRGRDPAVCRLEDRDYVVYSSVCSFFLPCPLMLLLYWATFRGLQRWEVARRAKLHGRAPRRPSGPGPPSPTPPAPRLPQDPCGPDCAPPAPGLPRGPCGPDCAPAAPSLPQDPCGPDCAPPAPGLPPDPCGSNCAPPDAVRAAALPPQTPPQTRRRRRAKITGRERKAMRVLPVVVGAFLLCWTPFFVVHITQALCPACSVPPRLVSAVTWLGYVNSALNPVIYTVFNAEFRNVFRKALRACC
Kind of assay: DRUGMATRIX: Dopamine D4.2 radioligand binding (ligand: [3H] Spiperone). To be noted: cho-k1; Not Active = under 50% inhibition at 10 µM. Type of assay: cell membranes, CHO-K1, Membrane.
`CC1(C)S[C@@H]2[C@H](NC(=O)[C@H](NC(=O)N3CCNC3=O)c3ccccc3)C(=O)N2[C@H]1C(=O)O` [AZLOCILLIN]: the IC50 result is listed as “Not Active”.
